Publication PMC5034696 (Drug Metabolism and Disposition, 2016)

Key:
human liver microsomes [1] = assay type: in vitro ADME; conditions: HLM
human liver microsomes [2] = assay type: in vitro ADME; conditions: HLM, p < 0.05; for S,S-OH-bupropion formation higher than control: 1 μM S-bupropion
CYP2C19 = conditions: vs extensive metabolizers; ref Zhu et al., 2014; cited from earlier work
[3] = in vivo, humans; ref Turpeinen et al., 2005; cited from earlier work

Question: Which results are given for `CCC1(c2ccccc2)NC(=O)N(Cc2ccccc2)C1=O` (single isomer, unassigned; (+)) [N-benzylnirvanol, (+)-N-3-benzylnirvanol]?
Answer: inhibition of 4′-OH-bupropion formation from R-bupropion (human liver microsomes [1]; 1 µM R-bupropion): 84%; inhibition of 4′-OH-bupropion formation from S-bupropion (human liver microsomes [1]; 1 µM S-bupropion): 82%; R,R-OH-bupropion formation higher than control (human liver microsomes [2]; 1 μM R-bupropion): 11%; S,S-OH-bupropion formation higher than control (human liver microsomes [2]): 20%

Question: For `CC(NC(C)(C)C)C(=O)c1cccc(Cl)c1` (stereo not shown) [bupropion], which “estimated in vivo isomerization CL” value (Chiral inversion; scaled to blood volume (5 l)) is on record?
Answer: 2.7 L/h

Question: And the “estimated in vivo isomerization CL” value (Chiral inversion; scaled to total body water (42 l))?
Answer: 22.7 L/h

Question: What about the “increase in bupropion AUC in CYP2C19 intermediate metabolizers” value (CYP2C19) of the same molecule?
Answer: 13%

Question: With `COC(=O)[C@H](c1ccccc1Cl)N1CCc2sccc2C1` [clopidogrel] as the molecule, how does the “increase in bupropion AUC” value [3] read?
Answer: 36%

Question: Which “S,S-OH-bupropion formation higher than control” value (human liver microsomes [2]) does the source give for `CC(C)(O)c1ccccc1CC[C@@H](SCC1(CC(=O)O)CC1)c1cccc(/C=C/c2ccc3ccc(Cl)cc3n2)c1` [montelukast] here?
Answer: 15%

Question: Which “increase in bupropion AUC” value [3] does the source give for `Clc1ccccc1CN1CCc2sccc2C1` [ticlopidine] here?
Answer: 61%
